# Test results taken from PubChem BioAssay (NCI).
#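 GI50 marks 50% less growth. TGI marks complete inhibition of growth.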
# What was measured:
# Test in all cases: inhibition of tumour cell growth, NCI panel, 384-well format
# [1] = tested on: 786-0 renal
# [2] = tested on: A498 renal
# [3] = tested on: A549 NSCLC
# [4] = tested on: ACHN renal
# [5] = tested on: BT-549 breast
# [6] = tested on: CAKI-1 renal
# [7] = tested on: CCRF-CEM leukemia
# [8] = tested on: COLO 205 colon
# [9] = tested on: DU-145 prostate
# [10] = tested on: HCC-2998 colon
# [11] = tested on: HCT-116 colon
# [12] = tested on: HCT-15 colon
# [13] = tested on: HL-60(TB) leukemia
# [14] = tested on: HOP-62 NSCLC
# [15] = tested on: HOP-92 NSCLC
# [16] = tested on: HT29 colon
# [17] = tested on: IGROV1 ovarian
# [18] = tested on: K-562 leukemia
# [19] = tested on: KM12 colon
# [20] = tested on: LOX IMVI melanoma
# [21] = tested on: M14 melanoma
# [22] = tested on: MALME-3M melanoma
# [23] = tested on: MCF7 breast
# [24] = tested on: MDA-MB-231 breast
# [25] = tested on: MDA-MB-435 melanoma
# [26] = tested on: MDA-MB-468 breast
# [27] = tested on: MOLT-4 leukemia
# [28] = tested on: NCI-H226 lung
# [29] = tested on: NCI-H23 lung
# [30] = tested on: NCI-H322M lung
# [31] = tested on: NCI-H460 NSCLC
# [32] = tested on: NCI-H522 lung
# [33] = tested on: NCI/ADR-RES ovarian
# [34] = tested on: OVCAR-3 ovarian
# [35] = tested on: OVCAR-4 ovarian
# [36] = tested on: OVCAR-5 ovarian
# [37] = tested on: OVCAR-8 ovarian
# [38] = tested on: PC-3 prostate
# [39] = tested on: RPMI-8226 leukemia
# [40] = tested on: RXF 393 renal
# [41] = tested on: SF-268 CNS
# [42] = tested on: SF-295 CNS
# [43] = tested on: SF-539 CNS
# [44] = tested on: SK-MEL-2 melanoma
# [45] = tested on: SK-MEL-28 melanoma
# [46] = tested on: SK-MEL-5 melanoma
# [47] = tested on: SK-OV-3 ovarian
# [48] = tested on: SN12C renal
# [49] = tested on: SNB-19 CNS
# [50] = tested on: SR leukemia
# [51] = tested on: SW-620 colon
# [52] = tested on: T-47D breast
# [53] = tested on: TK-10 renal
# [54] = tested on: U251 glioblastoma
# [55] = tested on: UACC-257 melanoma
# [56] = tested on: UACC-62 melanoma
# [57] = tested on: UO-31 renal
smiles,measurement,setting,value
CN(C)CC[C@H](CSc1ccccc1)Nc1ccc(S(=O)(=O)NC(=O)c2ccc(N3CCN(Cc4ccccc4-c4ccc(Cl)cc4)CC3)cc2)cc1[N+](=O)[O-],GI50,[1],1.94 µM
same,TGI,[1],4.74 µM
same,GI50,[2],1.42 µM
same,TGI,[2],2.98 µM
same,GI50,[3],3.14 µM
same,TGI,[3],53.2 µM
same,GI50,[4],5.2 µM
same,TGI,[4],62.8 µM
same,GI50,[5],2.23 µM
same,TGI,[5],6.13 µM
same,GI50,[6],1.83 µM
same,TGI,[6],3.73 µM
same,GI50,[7],0.145 µM
same,TGI,[7],0.372 µM
same,GI50,[8],1.68 µM
same,TGI,[8],3.12 µM
same,GI50,[9],4.2 µM
same,TGI,[9],> 100 µM
same,GI50,[10],0.232 µM
same,TGI,[10],0.75 µM
same,GI50,[11],1.95 µM
same,TGI,[11],4.07 µM
same,GI50,[12],1.68 µM
same,TGI,[12],3.17 µM
same,GI50,[13],0.0477 µM
same,TGI,[13],0.218 µM
same,GI50,[14],3.18 µM
same,TGI,[14],25.4 µM
same,GI50,[15],0.177 µM
same,TGI,[15],1.05 µM
same,GI50,[16],2.9 µM
same,TGI,[16],13.3 µM
same,GI50,[17],1.48 µM
same,TGI,[17],3.59 µM
same,GI50,[18],2.17 µM
same,TGI,[18],5.21 µM
same,GI50,[19],2.05 µM
same,TGI,[19],6.17 µM
same,GI50,[20],2.36 µM
same,TGI,[20],4.73 µM
same,GI50,[21],2.79 µM
same,TGI,[21],8.57 µM
same,GI50,[22],3.15 µM
same,TGI,[22],11.2 µM
same,GI50,[23],1.87 µM
same,TGI,[23],4.93 µM
same,GI50,[24],1.04 µM
same,TGI,[24],2.39 µM
same,GI50,[25],2.33 µM
same,TGI,[25],6.07 µM
same,GI50,[26],1.33 µM
same,TGI,[26],3.42 µM
same,GI50,[27],0.119 µM
same,TGI,[27],0.252 µM
same,GI50,[28],1.66 µM
same,TGI,[28],3.86 µM
same,GI50,[29],2.37 µM
same,TGI,[29],7.46 µM
same,GI50,[30],2.34 µM
same,TGI,[30],5.7 µM
same,GI50,[31],3.65 µM
same,TGI,[31],14.3 µM
same,GI50,[32],4.36 µM
same,TGI,[32],60.7 µM
same,GI50,[33],> 100 µM
same,TGI,[33],> 100 µM
same,GI50,[34],1.63 µM
same,TGI,[34],3.37 µM
same,GI50,[35],3 µM
same,TGI,[35],9.08 µM
same,GI50,[36],2.01 µM
same,TGI,[36],4.19 µM
same,GI50,[37],2.29 µM
same,TGI,[37],6.24 µM
same,GI50,[38],1.78 µM
same,TGI,[38],3.48 µM
same,GI50,[39],0.239 µM
same,TGI,[39],0.444 µM
same,GI50,[40],0.258 µM
same,TGI,[40],1.4 µM
same,GI50,[41],3.17 µM
same,TGI,[41],> 100 µM
same,GI50,[42],2.46 µM
same,TGI,[42],6.83 µM
same,GI50,[43],5.46 µM
same,TGI,[43],100 µM
same,GI50,[44],1.64 µM
same,TGI,[44],3.64 µM
same,GI50,[45],2.77 µM
same,TGI,[45],6.76 µM
same,GI50,[46],1.3 µM
same,TGI,[46],2.64 µM
same,GI50,[47],2.31 µM
same,TGI,[47],6.3 µM
same,GI50,[48],2.26 µM
same,TGI,[48],5.79 µM
same,GI50,[49],3.11 µM
same,TGI,[49],> 100 µM
same,GI50,[50],0.223 µM
same,TGI,[50],1.48 µM
same,GI50,[51],3.52 µM
same,TGI,[51],12.2 µM
same,GI50,[52],2.41 µM
same,TGI,[52],9.13 µM
same,GI50,[53],1.98 µM
same,TGI,[53],4.79 µM
same,GI50,[54],2.56 µM
same,TGI,[54],7.35 µM
same,GI50,[55],1.49 µM
same,TGI,[55],3.71 µM
same,GI50,[56],3.02 µM
same,TGI,[56],10.5 µM
same,GI50,[57],1.79 µM
same,TGI,[57],3.58 µM
CC(C)(/C=C(\C#N)C(=O)N1CCC[C@@H](n2nc(-c3ccc(Oc4ccccc4)cc3F)c3c(N)ncnc32)C1)N1CCN(C2COC2)CC1,GI50,[1],3.07 µM
same,TGI,[1],10.4 µM
same,GI50,[2],2.39 µM
same,TGI,[2],5.72 µM
same,GI50,[3],3.55 µM
same,TGI,[3],13.2 µM
same,GI50,[4],9.03 µM
same,TGI,[4],21.2 µM
same,GI50,[5],1.21 µM
same,TGI,[5],2.78 µM
same,GI50,[6],3.41 µM
same,TGI,[6],9.34 µM
same,GI50,[7],1.49 µM
same,TGI,[7],2.86 µM
same,GI50,[8],1.63 µM
same,TGI,[8],5.8 µM
same,GI50,[9],9.84 µM
same,TGI,[9],29.1 µM
same,GI50,[11],2.9 µM
same,TGI,[11],10.6 µM
same,GI50,[12],4.52 µM
same,TGI,[12],15.1 µM
same,GI50,[13],1.5 µM
same,TGI,[13],2.89 µM
same,GI50,[14],2.47 µM
same,TGI,[14],5.82 µM
same,GI50,[15],1.38 µM
same,TGI,[15],3.76 µM
same,GI50,[16],1.73 µM
same,TGI,[16],3.48 µM
same,GI50,[17],2.94 µM
same,TGI,[17],9.69 µM
same,GI50,[18],1.24 µM
same,TGI,[18],2.82 µM
same,GI50,[19],0.712 µM
same,TGI,[19],2.47 µM
same,GI50,[20],2.3 µM
same,TGI,[20],4.09 µM
same,GI50,[21],2.08 µM
same,TGI,[21],5.29 µM
same,GI50,[22],1.28 µM
same,TGI,[22],5.26 µM
same,GI50,[23],2.28 µM
same,TGI,[23],10.4 µM
same,GI50,[24],2.54 µM
same,TGI,[24],7.28 µM
same,GI50,[25],0.0551 µM
same,TGI,[25],0.448 µM
same,GI50,[26],0.239 µM
same,TGI,[26],1.16 µM
same,GI50,[27],0.157 µM
same,TGI,[27],0.46 µM
same,GI50,[28],2.18 µM
same,TGI,[28],5.42 µM
same,GI50,[29],3.51 µM
same,TGI,[29],9.62 µM
same,GI50,[30],6.84 µM
same,TGI,[30],23.2 µM
same,GI50,[31],1.87 µM
same,TGI,[31],3.72 µM
same,GI50,[32],0.164 µM
same,TGI,[32],1.36 µM
same,GI50,[33],13.8 µM
same,TGI,[33],27.1 µM
same,GI50,[34],0.289 µM
same,TGI,[34],1.6 µM
same,GI50,[35],1.35 µM
same,TGI,[35],7.72 µM
same,GI50,[36],10.5 µM
same,TGI,[36],22.9 µM
same,GI50,[37],5.91 µM
same,TGI,[37],18 µM
same,GI50,[38],3.73 µM
same,TGI,[38],13.8 µM
same,GI50,[39],1.14 µM
same,TGI,[39],2.38 µM
same,GI50,[40],1.19 µM
same,TGI,[40],3.04 µM
same,GI50,[41],2.29 µM
same,TGI,[41],7.3 µM
same,GI50,[42],9.51 µM
same,TGI,[42],21.5 µM
same,GI50,[43],2.08 µM
same,TGI,[43],5.39 µM
same,GI50,[44],0.0857 µM
same,TGI,[44],1.08 µM
same,GI50,[45],1.86 µM
same,TGI,[45],5.23 µM
same,GI50,[46],1.41 µM
same,TGI,[46],2.92 µM
same,GI50,[47],1.23 µM
same,TGI,[47],3 µM
same,GI50,[48],2.82 µM
same,TGI,[48],7.62 µM
same,GI50,[49],3.69 µM
same,TGI,[49],12.1 µM
same,GI50,[50],0.0378 µM
same,TGI,[50],0.208 µM
same,GI50,[51],1.87 µM
same,TGI,[51],3.63 µM
same,GI50,[52],2.33 µM
same,TGI,[52],11 µM
same,GI50,[53],6.64 µM
same,TGI,[53],18.9 µM
same,GI50,[54],2.6 µM
same,TGI,[54],8.45 µM
same,GI50,[55],1.49 µM
same,TGI,[55],3.81 µM
same,GI50,[56],1.12 µM
same,TGI,[56],3.24 µM
same,GI50,[57],7.98 µM
same,TGI,[57],20.3 µM
